# Source: patent US9939427B2, “Method for evaluating the scent performance of perfumes or perfume mixtures” (Symrise AG, priority 2013, dated 2018)
# “Also recorded” adds a separate entry of the source.
# How the values were obtained:
# OR4C16 = target: T1, OR4C16 (Homo sapiens, UniProt Q8NGL9); assay: Ca-imaging of OR4C16-transfected HEK293 cells; format: cell-based; design: key to OR4C16 responded to odorant: ▪: 18 olfactory receptors responded to 32 odorants in related with specific anosmia
# T1 construct: specific primers, which amplify the complete open reading frame; expressed in transfected cells; host or cells: HEK293
# Experimental: (§1) HEK293 cells were cultivated in Petri dishes (Ø35 mm) as previously described (Benbernou et al. 2007). We grow up HEK293 cells in culture medium containing standard DMEM with 10% heat-inactivated fetal bovine serum, 2 mM L-glutamine, 100 units/ml penicillin, and 100 units/ml streptomycin in a humidified atmosphere (37° C., 5% CO2). After 2-3 days, the transfection process was carried out, whereby the cell culture was 70-80% confluent. The calciumphosphate method was applied to transfect DNA plasmid transiently in HEK293 cells in case of Ca-imaging method.
# (§2) Calcium cations and phosphate anions created crystal precipitations coupled with DNA which could invade into the cells through endocytosis. […]
# (§3) Calcium imaging of the transfected HEK293 cells was done by using chambers determinate an inverted microscope (Olympus; IX70) using a 10× objective (CPIanFL N Olympus). Fluorescence emission was determined every 4 s by using a CCD camera (Charge Coupled Device, C9100 Hamamatsu). […] Odorants were manually monitored to drop each 4-5 s to transfected cells. […]
# (§4) In experiments, Fura-2 Acetoxymethylester (Fura-2/AM) was applied. […] According to this feature, the analysis of 340/380 nm excitation ratio for Fura-2 allows to quantify intracellular calcium levels. […]
# OR5L1 = target: T2, OR5L1 (Homo sapiens, UniProt Q8NGL2); assay: Ca-imaging of OR5L1-transfected HEK293 cells; format: cell-based; design: key: ▪: 18 olfactory receptors responded to 32 odorants in related with specific anosmia; conditions: individual odorant 200 μM, significant response p<0.05
# T2 construct: specific primers, which amplify the complete open reading frame; expressed in transfected cells; host or cells: HEK293
# Experimental: as §1, §2, §3, §4
# OR1B1 = target: T3, OR1B1 (Homo sapiens, UniProt Q8NGR6); assay: Ca-imaging of OR1B1-transfected HEK293 cells; format: cell-based; design: key to OR1B1 responded to odorant: ▪: 18 olfactory receptors responded to 32 odorants in related with specific anosmia; conditions: for Number of cell responses of OR1B1 (FIG. 8): 200 μM, approximately 2000 cells in three times of measuring, steroid comparison; for Response of OR1B1 to odorant, in words: single odorants 200 μM; for Number of cell responses, Experiment (OR1B1): odorant 200 μM, approximately 2000 transfected cells in three times of measuring (Table 4, FIG. 5)
# T3 construct: specific primers, which amplify the complete open reading frame; expressed in transfected cells; host or cells: HEK293
# T3 sequence (Q8NGR6 1-317): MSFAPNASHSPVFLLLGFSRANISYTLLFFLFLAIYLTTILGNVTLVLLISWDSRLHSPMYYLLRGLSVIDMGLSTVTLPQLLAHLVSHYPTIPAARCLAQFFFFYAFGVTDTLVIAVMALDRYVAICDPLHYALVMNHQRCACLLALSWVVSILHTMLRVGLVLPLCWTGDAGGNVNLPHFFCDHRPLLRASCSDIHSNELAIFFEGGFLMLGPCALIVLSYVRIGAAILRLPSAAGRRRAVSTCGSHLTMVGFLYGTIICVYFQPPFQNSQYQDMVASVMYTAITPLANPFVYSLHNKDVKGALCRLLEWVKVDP
# Experimental: as §1
# (§5) Calcium cations and phosphate anions created crystal precipitations coupled with DNA which could invade into the cells through endocytosis. Cells were transiently transfected with plasmid DNA which consists of pCI expression vector and PCR-amplified full-length cDNA of olfactory receptors candidates, and also Gα15, RTP1, Myr-Ric8A, HSC70, and m-Cherry as cofactors. The precipitation could be created after 15-20 min, with dropping the transfection solution on HEK293 cells. Before measuring by Ca-imaging cells were incubated 48-60 hours at 370 C, 5% CO2. Cationic liposome-mediated transfection method was applied to transfect DNA plasmid transiently in HANA3A cells in case of CRE-Luciferase and CRE-SEAP assays.
# (§6) Calcium imaging of the transfected HEK293 cells was done by using chambers determinate an inverted microscope (Olympus; IX70) using a 10× objective (CPIanFL N Olympus). Fluorescence emission was determined every 4 s by using a CCD camera (Charge Coupled Device, C9100 Hamamatsu). The capillary tube which was responsible to supply odorants was generated closely above the cells. The columns filled with odorants, DMSO and ATP. Odorants were manually monitored to drop each 4-5 s to transfected cells. Solutions with drop wise form spread on HEK293 cells in 35 mm dishes.
# (§7) In experiments, Fura-2 Acetoxymethylester (Fura-2/AM) was applied. The non-polar Fura2/AM is fluorescent but not yet calcium-sensitive. Once diffuses into cell plasma, Fura-2/AM is hydrolyzed to Fura-2 which is calcium-sensitive and functions as Ca2+ chelator. Regardless of the presence of calcium, Fura-2 emits at the wavelength of 510 nm. Once Fura-2 binds to free intracellular Ca2+ in cell plasma, its ratio of excitation at wavelengths of 340 nm and 380 nm is changed and correlated to the amount of intracellular Ca2+. According to this feature, the analysis of 340/380 nm excitation ratio for Fura-2 allows to quantify intracellular calcium levels.
# (§8) In preparation for Ca-imaging measurements, transfected HEK293 cells were added 3 it Fura2/AM (3 μM) and incubated 30-45 min at 370 C, 5% CO2. After this step, experiments were carried out in a dark condition (Fura-2 is light-sensitive). After the incubation, medium of cell culture was replaced with 2 ml Ringer's solution.
# (§9) Odorants were freshly prepared with DMSO as 1 M stocks solutions. Six mixtures (200 μM each chemical) were applied to cells sequentially (20 s each mixture/30 s Ringer). Those ORs tested with single odorants that had generated a response to odorant mixture group previously. Odorants were prepared in 100-200 μM concentration.
# (§10) Ringer's solution was used for washing cells between measuring by two different odorants. Positive response was determined by the timing of the response, the strength of the response (more than twofold higher than the noise amplitude of the baseline), and the shape of the response curve (sharp rise in curve with gradual recovery). The typical shape of response curves was established by observing responses to repeated stimulation with 200 μM of odorants. After testing with single odorants at 100 μM, stimulating odorants were often retested at 200 μM concentrations. To confirm the result of every receptor that produced a significant response curves, the experiment was repeated for twelve times. Finally, cells were exposed to ATP (0.25 mM) which could activate P2Y receptor channel and induce Ca2+ influx into cells. […]
# [1] = tested on: HEK293 cells transfected with all cofactors and pCI plasmids without ORs; assay: Ca-imaging of control HEK293 cells without OR; format: cell-based; conditions: for Number of cell responses in controls (FIG. 8, 11, 12): 200 μM, steroid comparison
# Experimental: as §1, §5, §6, §7, §8, §9, §10
# OR1B1-574 = target: T4, OR1B1-574 (Homo sapiens, UniProt Q8NGR6); assay: Ca-imaging of mutant OR1B1-574 in HEK293 cells; format: cell-based; conditions: 200 μM, applied for 20 seconds
# T4 construct: Rho-tag (N); expressed in transfected cells; host or cells: HEK293
# From the text: (§11) Mutations were introduced for OR1B1 and OR10Q1 by Overlap Extension PCR (OEP). […] Flanking primers in combination with internal primers provided mutated gene segments, Full length primers included EcoRI and NotI restriction sites for further cloning into pCI expression vector. Site-directed mutations were selected for base of minor allele frequency of nucleotide.
# (§12) In mutagenesis by overlap extension PCR method, initial PCRs provided mutated gene segments, with overlapping complementary 3′ ends carrying desired point mutation that were then mixed and used as template for a subsequent PCR to generate the full-length product. Overlapping strands of these intermediate products hybridize at this 3′ region in a subsequent PCR and are extended to generate the full-length product amplified by flanking primers; this shown in FIG. 2. […]
# as §3, §4
# OR1B1-688 = assay: Ca-imaging of mutant OR1B1-688 in HEK293 cells; format: cell-based, human; conditions: 200 μM, applied for 20 seconds
# From the text: as §11, §12, §3, §4
# OR1B1-789 = target: T5, OR1B1-789 (Homo sapiens, UniProt Q8NGR6, C262W); assay: Ca-imaging of mutant OR1B1-789 in HEK293 cells; format: cell-based; conditions: 200 μM, applied for 20 seconds
# T5 construct: Full length primers included EcoRI and NotI restriction sites for further cloning into pCI expression vector; Rho-tag (N); expressed in transfected cells; host or cells: HEK293
# From the text: as §11, §12, §3, §4
# OR4C3 = target: T6, OR4C3 (Homo sapiens, UniProt Q8NH37); assay: Ca-imaging of OR4C3-transfected HEK293 cells; format: cell-based; design: key: ▪: 18 olfactory receptors responded to 32 odorants in related with specific anosmia; conditions: individual odorant 200 μM, significant response p<0.05
# T6 construct: specific primers, which amplify the complete open reading frame; expressed in transfected cells; host or cells: HEK293
# Experimental: as §1, §2, §3, §4
# OR10C1 = target: T7, OR10C1 (Homo sapiens, UniProt Q96KK4); assay: Ca-imaging of OR10C1-transfected HEK293 cells; format: cell-based; design: key: ▪: 18 olfactory receptors responded to 32 odorants in related with specific anosmia; conditions: individual odorant 200 μM, significant response p<0.05
# T7 construct: specific primers, which amplify the complete open reading frame; expressed in transfected cells; host or cells: HEK293
# Experimental: as §1, §2, §3, §4
# OR5I1 = target: T8, OR5I1 (Homo sapiens, UniProt Q13606); assay: Ca-imaging of OR5I1-transfected HEK293 cells; format: cell-based; design: key to OR5I1 responded to odorant: ▪: 18 olfactory receptors responded to 32 odorants in related with specific anosmia
# T8 construct: specific primers, which amplify the complete open reading frame; expressed in transfected cells; host or cells: HEK293
# Experimental: as §1, §2, §3, §4
# [2] = HEK293 cells, individual odorant 200 μM, significant response p<0.05
# T5 sequence (Q8NGR6 whole entry C262W): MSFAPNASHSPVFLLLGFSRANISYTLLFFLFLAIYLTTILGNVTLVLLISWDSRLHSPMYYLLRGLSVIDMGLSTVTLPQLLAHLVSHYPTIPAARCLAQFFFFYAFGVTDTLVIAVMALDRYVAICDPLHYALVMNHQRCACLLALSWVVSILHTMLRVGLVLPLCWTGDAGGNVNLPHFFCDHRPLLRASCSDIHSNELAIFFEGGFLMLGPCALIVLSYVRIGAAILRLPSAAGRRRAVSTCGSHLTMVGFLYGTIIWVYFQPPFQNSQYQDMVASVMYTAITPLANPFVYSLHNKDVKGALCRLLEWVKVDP
# T2 sequence (Q8NGL2 whole entry): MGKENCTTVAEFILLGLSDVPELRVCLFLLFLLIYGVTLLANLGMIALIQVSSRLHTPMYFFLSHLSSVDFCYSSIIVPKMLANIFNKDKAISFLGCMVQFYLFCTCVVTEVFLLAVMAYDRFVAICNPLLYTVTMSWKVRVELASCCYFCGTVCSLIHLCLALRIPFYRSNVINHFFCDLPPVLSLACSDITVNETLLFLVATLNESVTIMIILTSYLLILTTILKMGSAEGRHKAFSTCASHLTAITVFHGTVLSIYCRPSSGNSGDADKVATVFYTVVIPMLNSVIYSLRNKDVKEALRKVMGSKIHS
# T7 sequence (Q96KK4 whole entry): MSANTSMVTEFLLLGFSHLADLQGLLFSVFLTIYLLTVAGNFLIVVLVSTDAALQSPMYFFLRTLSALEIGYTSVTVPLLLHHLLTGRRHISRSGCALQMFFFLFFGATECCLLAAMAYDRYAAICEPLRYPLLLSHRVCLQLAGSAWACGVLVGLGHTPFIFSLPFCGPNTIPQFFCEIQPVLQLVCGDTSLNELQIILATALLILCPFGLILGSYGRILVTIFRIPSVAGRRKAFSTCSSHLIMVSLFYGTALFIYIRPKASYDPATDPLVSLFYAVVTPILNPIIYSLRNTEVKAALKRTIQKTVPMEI
# T6 sequence (Q8NH37 whole entry): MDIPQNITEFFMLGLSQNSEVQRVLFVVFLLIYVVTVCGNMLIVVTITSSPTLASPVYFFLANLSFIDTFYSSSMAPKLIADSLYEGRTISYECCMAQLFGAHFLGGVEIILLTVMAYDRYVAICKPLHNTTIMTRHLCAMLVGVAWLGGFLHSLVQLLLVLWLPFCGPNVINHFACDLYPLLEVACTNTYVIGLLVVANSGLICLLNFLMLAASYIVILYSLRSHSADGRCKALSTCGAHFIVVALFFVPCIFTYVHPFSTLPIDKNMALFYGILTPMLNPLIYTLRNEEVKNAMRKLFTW
# T8 sequence (Q13606 whole entry): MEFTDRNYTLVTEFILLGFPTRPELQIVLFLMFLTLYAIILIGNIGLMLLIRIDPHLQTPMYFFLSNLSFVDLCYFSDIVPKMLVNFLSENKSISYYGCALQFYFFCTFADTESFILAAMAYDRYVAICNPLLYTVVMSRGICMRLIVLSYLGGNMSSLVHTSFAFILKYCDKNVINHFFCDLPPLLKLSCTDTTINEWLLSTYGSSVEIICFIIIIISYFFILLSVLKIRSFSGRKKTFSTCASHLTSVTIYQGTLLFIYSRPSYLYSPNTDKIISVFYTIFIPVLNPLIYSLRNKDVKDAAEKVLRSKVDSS
# T1 sequence (Q8NGL9 whole entry): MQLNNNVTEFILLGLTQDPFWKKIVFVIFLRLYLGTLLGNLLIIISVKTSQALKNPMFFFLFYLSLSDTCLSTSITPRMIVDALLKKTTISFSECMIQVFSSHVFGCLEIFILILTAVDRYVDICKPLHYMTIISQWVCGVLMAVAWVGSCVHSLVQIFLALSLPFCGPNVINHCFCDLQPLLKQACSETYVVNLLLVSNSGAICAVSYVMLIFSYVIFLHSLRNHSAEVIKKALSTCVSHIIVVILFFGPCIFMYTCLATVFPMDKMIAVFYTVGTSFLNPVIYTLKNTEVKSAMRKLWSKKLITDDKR
compound,measurement,setting,value
CCCCCC1CCC(=O)O1 (centres unmarked) [Aldehyde C18],OR4C16 responded to odorant,OR4C16; [2],▪
same,"Response of OR4C16 to odorant, in words",OR4C16; single odorants 200 μM,responded
same,OR5L1 responded to odorant,OR5L1,▪
"C[C@]12CCC(=O)C[C@@H]1CC[C@@H]1[C@@H]2CC[C@]2(C)C=CC[C@@H]12 [Androstenon, 5α-Androst-16-en-3-one]",Number of cell responses of OR1B1 (FIG. 8),OR1B1,13
same,OR1B1 responded to odorant,"OR1B1; Ca-imaging, HEK293 cells, individual odorant 200 μM, significant response p<0.05",▪
same,"Response of OR1B1 to odorant, in words","OR1B1; Ca-imaging, listed as androstenone",significantly (P<0.05) activated; also recorded: responded
same,"Number of cell responses, Experiment (OR1B1)",OR1B1; listed as Andorestenone,20
same,"Number of cell responses, Experiment (OR1B1)",OR1B1; listed as androstenone,35
same,"Number of cell responses in controls (FIG. 8, 11, 12)",[1],3
same,"Number of cell responses, Control","[1]; odorant 200 μM, three times of measuring (Table 4, FIG. 5)",0
same,Response of OR1B1-574 in comparison to OR1B1 WT,OR1B1-574,not able to reproduce responses
same,Response of OR1B1-688 in comparison to OR1B1 WT,OR1B1-688; listed as androstenone,no significantly different responses; also recorded: did not show any significant difference
same,Response of OR1B1-789 in comparison to OR1B1 WT,OR1B1-789; listed as androstenone,no significantly different responses; also recorded: did not show any significant difference
"C/C=C/C(=O)C1=C(C)CCCC1(C)C [B-Damascone, β-Damascone]",OR5L1 responded to odorant,OR5L1,▪
same,OR4C3 responded to odorant,OR4C3,▪
"CCCCCC1C(=O)CCC1CC(=O)OC (centres unmarked) [Hedione, Hedion]",OR10C1 responded to odorant,OR10C1,▪
CC(C)CCC(=O)O [Isocaproic acid],OR4C3 responded to odorant,OR4C3,▪
CCCCCCCC=O [Octanal],OR5I1 responded to odorant,OR5I1; [2],▪
same,"Response of OR5I1 to odorant, in words",OR5I1; single odorants 200 μM,responded
"CCC(C)=O [Odorant 2-butanone, 2-Butanone]",OR10C1 responded to odorant,OR10C1,▪
C[C@]12CC[C@H]3[C@@H](CCC4=CC(=O)CC[C@@]43C)[C@@H]1CC[C@@H]2O [testosterone],Number of cell responses of OR1B1 (FIG. 8),OR1B1,12
same,"Response of OR1B1 to odorant, in words",OR1B1; Ca-imaging,responded
same,"Number of cell responses in controls (FIG. 8, 11, 12)",[1],1
same,Response of OR1B1-574 in comparison to OR1B1 WT,OR1B1-574,not able to reproduce responses
same,Response of OR1B1-688 in comparison to OR1B1 WT,OR1B1-688,no significantly different responses; also recorded: did not show any significant difference
same,Response of OR1B1-789 in comparison to OR1B1 WT,OR1B1-789,no significantly different responses; also recorded: did not show any significant difference
